Measured values from US8604016B2, “Heterocyclic inhibitors of glutaminase” (Calithera Biosciences Inc., priority 2011, dated 2013).
≈ marks a conversion by molar mass, not a printed value. Like-named read-outs stand apart in the source and are kept apart here.

What was measured:
P493-6 (myc "on") cells = test: Cell Proliferation Assay (72 hrs, Cell Titer Glo or Viacount FACS); format: cell-based
Protocol: P493-6 (myc “on”) cells were maintained in growth media (RPMI-1640, 10% FBS, 2 mM glutamine, 100 units/ml Penicillin and 100 μg/ml streptomycin) at 37° C. with 5% CO2. For compound assay, P493-6 cells were plated in 96-well V-bottom plates on the day of compound addition in 50 μl of growth media at a cell density of 200,000 cells/ml (10,000 cells/well). Compounds were serially diluted in 100% DMSO at 200-times the final concentration. Compounds were diluted 100-fold into growth media and then 50 μl of this mixture was added to cell plates making the final concentration of DMSO 0.5%. Cells were incubated with compound for 72 hrs at 37° C. with 5% CO2 and analyzed for antiproliferative effects either by Cell Titer Glo (Promega) or FACS analysis using the Viacount (Millipore) kit on the Guava instrument.

[1] = Caco-2 Permeability Assay (bidirectional); format: in vitro ADME; conditions: human; for recovery at 120 min, 1 μM / Papp A→B at 120 min, 1 μM / Papp B→A at 120 min, 1 μM: pH 7.4; for Papp A→B at 120 min, 1 μM / Papp B→A at 120 min, 1 μM / permeability class (Low/High absorption potential) at 120 min, 1 µM / efflux ratio at 120 min, 1 µM: Caco-2; for Papp A→B at 120 min, 1 μM: Direction A→B; for Papp A→B at 120 min, 1 μM / Papp B→A at 120 min, 1 μM: unit not given (thresholds in 10^−6 cm/s); for Papp B→A at 120 min, 1 μM: Direction B→A; for permeability class (Low/High absorption potential) at 120 min, 1 µM: read-out: Permeability Classification; for efflux ratio at 120 min, 1 µM: (Papp B→A)/(Papp A→B)
From the text: (§1) Caco-2 cells are commonly used in a confluent monolayer on a cell culture insert filter. When cultured in this format and under specific conditions, the cells become differentiated and polarized such that their phenotype, morphologically and functionally resembles the enterocytes lining the small intestine. The cell monolayer provides a physical and biochemical barrier to the passage of small molecules, and is widely used across the pharmaceutical industry as an in vitro model of the human small intestinal mucosa to predict the absorption of orally administered drugs (Hidalgo et al., Gastroenterology, 1989; Artursson, J. Pharm. Sci., 1990). The correlation between the in vitro apparent permeability (P ? app) across Caco-2 monolayers and the in vivo absorption is well established (Artursson et al., Biochem. Biophys. Res. Comm., 1991).
(§2) The present assay was used to determine the bidirectional permeability of the compounds of the invention through Caco-2 cell monolayers. Caco-2 cells were grown in confluent monolayers where the media of both the apical (A) and basolateral (B) sides were at pH 7.4. Compounds were dosed at 1 μM in the presence of 200 μM Lucifer Yellow, on the apical side (A→B) or the basolateral side (B→A) for assessment, in duplicate.
(§3) The absorption potential of compounds were classified as either Low (P-app <1×10^−6 cm/s) or High (P-app >1×10^−6 cm/s).

Caco-2 cell monolayers = test: Caco-2 Permeability Assay (bidirectional); format: in vitro ADME
From the text: as §1, §2, §3

[2] = Solubility (18 hr vortex mixing at room temperature, filtration, HPLC); format: physicochemical; conditions: thermodynamic from solid
Protocol: Ca. 1 mg portions of test article were combined with 120 μL solvent in wells of a 96×2 mL polypropylene plate. […] The contents of all wells were then filtered through a 0.45 μm GHP filter plate to yield clear filtrates. 5 μL of each filtrate was diluted into 100 μL DMF and vortex mixed to yield HPLC samples. Duplicate quantitation standards for each test article were prepared by diluting weighed portions of solid test article in measured volumes of DMF. 2 μL of each HPLC sample and quantitation standard were analyzed by HPLC using the method outlined in Table 5. Dissolved test article concentrations were calculated by peak area ratio against the appropriate quantitation standards.

[3] = target: recombinant form of Glutaminase 1 (GAC) (Homo sapiens, UniProt O94925); test: Recombinant Enzyme Assay (GAC coupled to GDH, NADH absorbance, no preincubation); format: biochemical; conditions: no preincubation; read-out: GAC Delta N2 IC50 no preinc
How it was run: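 GAC (4 nM) in Tris-HCl pH 8.0 with 150 mM K2HPO4, EDTA, BSA, DTT, plus 4 units/ml GDH and 4 mM ADP, without preincubation. Absorbance at 340 nm was read kinetically for 15 min at 20° C. Slopes (mAU/min) were compared with DMSO-only and control-compound wells on the same plate.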

[4] = read-out: Cell prolif P493 72h IC50, P493-6 cells, 72 h
[5] = 50 mM citrate buffer pH 2.3, 20 °C, aqueous buffer, 50 mM Cit pH 2.3, room temperature
[6] = 50 mM citrate buffer pH 3.3, 20 °C, aqueous buffer, 50 mM Cit pH 3.3, room temperature
[7] = 50 mM citrate buffer pH 4.4, 20 °C, aqueous buffer, 50 mM Cit pH 4.4, room temperature
[8] = 50 mM citrate buffer pH 5.4, 20 °C, aqueous buffer, 50 mM Cit pH 5.4, room temperature
[9] = 20 °C, aqueous buffer, PBS, room temperature
[10] = 20 °C, aqueous with cosolvent or surfactant or cyclodextrin, 10% CrEL/50 mM cit, room temperature
[11] = 20 °C, aqueous with cosolvent or surfactant or cyclodextrin, 10% PS80/50 mM cit, room temperature
[12] = 20 °C, aqueous with cosolvent or surfactant or cyclodextrin, 20% HPBCD/50 mM cit, room temperature
[13] = 20 °C, aqueous with cosolvent or surfactant or cyclodextrin, 20% SBECD/50 mM cit, room temperature
[14] = 20 °C, oil or lipid, Capryol 90, room temperature
[15] = 20 °C, oil or lipid, Capryol PGMC, room temperature
[16] = 20 °C, oil or lipid, Labrasol, room temperature
[17] = 20 °C, oil or lipid, canola oil, room temperature
[18] = 20 °C, organic solvent or mixture, EtOH, room temperature
[19] = 20 °C, organic solvent or mixture, PEG400, room temperature
[20] = 20 °C, organic solvent or mixture, PG, room temperature
[21] = 20 °C, pH 1, simulated gastric fluid, 0.1M HCl, room temperature
[22] = 20 °C, pH 13, aqueous buffer, 0.1M NaOH, room temperature
[23] = 20 °C, saline or isotonic, 0.9% NaCl, room temperature
[24] = water, room temperature (ca. 20 C)

| Structure (SMILES) | recovery at 120 min, 1 μM ([1]; Caco-2, pH 7.4, Direction A→B) [%] | recovery at 120 min, 1 μM ([1]; Caco-2, pH 7.4, Direction B→A) [%] | Papp A→B at 120 min, 1 μM [1] [×10⁻⁶ cm/s] | Papp B→A at 120 min, 1 μM [1] [×10⁻⁶ cm/s] | permeability class (Low/High absorption potential) at 120 min, 1 µM [1] [×10⁻⁶ cm/s] | Significant Efflux (Caco-2 cell monolayers) | efflux ratio at 120 min, 1 µM [1] | solubility at 18 h [2, 5] [µg/mL] | solubility at 18 h [2, 6] [µg/mL] | solubility at 18 h [2, 7] [µg/mL] | solubility at 18 h [2, 8] [µg/mL] | solubility at 18 h [2, 9] [µg/mL] | solubility at 18 h [2, 10] [µg/mL] | solubility at 18 h [2, 11] [µg/mL] | solubility at 18 h [2, 12] [µg/mL] | solubility at 18 h [2, 13] [µg/mL] | solubility at 18 h [2, 14] [µg/mL] | solubility at 18 h [2, 15] [µg/mL] | solubility at 18 h [2, 16] [µg/mL] | solubility at 18 h [2, 17] [µg/mL] | also measured |
| --- | --- | --- | --- | --- | --- | --- | --- | --- | --- | --- | --- | --- | --- | --- | --- | --- | --- | --- | --- | --- | --- |
| O=C(Cc1cccc(CN2CCNCC2)c1)Nc1nnc(CCCCc2nnc(NC(=O)Cc3cccc(CN4CCNCC4)c3)s2)s1 [Compound 276] | – | – | – | – | – | – | – | – | – | – | – | – | – | – | – | – | – | – | – | – | IC50 (P493-6 (myc "on") cells; [4]): 56000 nM |
| Nc1nnc(CCCCc2ccc(NC(=O)Cc3cccc(OC(F)(F)F)c3)nn2)s1 [Compound 657, N-(6-(4-(5-amino-1,3,4-thiadiazol-2-yl)butyl)pyridazin-3-yl)-2-(3-(trifluoromethoxy)phenyl)acetamide] | – | – | – | – | – | – | – | – | – | – | – | – | – | – | – | – | – | – | – | – | IC50 (P493-6 (myc "on") cells; P493-6, 72 h, P493-6 cells, 72 h, read-out: Cell prolif P493 72h): 1500 nM |
| O=C(Cc1cccc(OC(F)(F)F)c1)Nc1ccc(CCCCc2nnc(NC(=O)Cc3ccccn3)s2)nn1 [Compound 670] | 70 | 72 | 9.64 | 59.6 | > 1 | Yes (efflux ratios being significant when greater than or equal to 3 when the Papp (B→A) was greater than or equal to 1×10^−6 cm/s) | – | – | – | – | – | – | – | – | – | – | – | – | – | – | IC50 (P493-6 (myc "on") cells; P493-6 cells, 72 h, read-out: Cell prolif P493 72h): 30 nM |
| O=C(Cc1cccc(OC(F)(F)F)c1)Nc1ccc(CCCCc2nnc(NC(=O)Cc3ccccc3)s2)nn1 [Compound 585] | 42 | 53 | 7.52 | 23.4 | > 1 | Yes (efflux ratios being significant when greater than or equal to 3 when the Papp (B→A) was greater than or equal to 1×10^−6 cm/s) | 3.1 | < 2 | < 2 | < 2 | < 2 | < 2 | 228 (≈ 400 µM) | 261 (≈ 457 µM) | 327 (≈ 573 µM) | 125 (≈ 219 µM) | 1740 (≈ 3060 µM) | 1780 (≈ 3120 µM) | 5000 (≈ 8770 µM) | 72 (≈ 126 µM) | solubility at 18 h [2, 18]: 1990 µg/mL (≈ 3490 µM); solubility at 18 h [2, 19]: 3940 µg/mL (≈ 6910 µM); solubility at 18 h [2, 20]: 1420 µg/mL (≈ 2490 µM); solubility at 18 h [2, 21]: < 2 µg/mL; solubility at 18 h [2, 22]: 192 µg/mL (≈ 336 µM); solubility at 18 h [2, 23]: < 2 µg/mL; solubility at 18 h [2, 24]: < 2 µg/mL |
| O=C(Nc1nnc(CCCCc2nnc(NC(=O)C3COc4ccccc43)s2)s1)C1COc2ccccc21 (stereo not drawn) [Compound 135] | – | – | – | – | – | – | – | – | – | – | – | – | – | – | – | – | – | – | – | – | IC50 (P493-6 (myc "on") cells; [4]): 490 nM |
| CC(C)(C)OC(=O)Nc1ccc(CC(=O)Cc2nnc(CCCCc3nnc(NC(=O)Cc4ccc(NC(=O)OC(C)(C)C)cc4)s3)s2)cc1 [Compound 192] | – | – | – | – | – | – | – | – | – | – | – | – | – | – | – | – | – | – | – | – | IC50 [3]: > 20000 nM; IC50 (P493-6 (myc "on") cells; P493-6, 72 h, read-out: Cell prolif P493 72h IC50, P493-6 cells, 72 h): 30 nM |
| O=C(Cc1cccc(OC(F)(F)F)c1)Nc1ccc(CCCCc2nnc(NC(=O)[C@@H](O)c3ccccc3)s2)nn1 [Compound 703] | 51 | 66 | 6.26 | 41 | > 1 | Yes (efflux ratios being significant when greater than or equal to 3 when the Papp (B→A) was greater than or equal to 1×10^−6 cm/s) | 6.6 | < 4 | < 4 | < 4 | < 4 | < 4 | 309 (≈ 527 µM) | 378 (≈ 644 µM) | 651 (≈ 1110 µM) | 476 (≈ 811 µM) | 7410 (≈ 12600 µM) | 3680 (≈ 6280 µM) | 20700 (≈ 35300 µM) | 14 (≈ 23.9 µM) | solubility at 18 h [2, 18]: 2640 µg/mL (≈ 4510 µM); solubility at 18 h [2, 19]: 22400 µg/mL (≈ 38200 µM); solubility at 18 h [2, 20]: 4700 µg/mL (≈ 8010 µM); solubility at 18 h [2, 21]: < 4 µg/mL; solubility at 18 h [2, 22]: 656 µg/mL (≈ 1120 µM); solubility at 18 h [2, 23]: < 4 µg/mL; solubility at 18 h [2, 24]: < 4 µg/mL |
| O=C(Cc1ccccc1)Nc1ccc(CCCCc2nnc(NC(=O)Cc3ccccc3)s2)nn1 [Compound 295] | 89 | 96 | 8.17 | 59.8 | > 1 | Yes (efflux ratios being significant when greater than or equal to 3 when the Papp (B→A) was greater than or equal to 1×10^−6 cm/s) | 7.3 | < 2 | < 2 | < 2 | < 2 | < 2 | 55 (≈ 113 µM) | 27 (≈ 55.5 µM) | 167 (≈ 343 µM) | 90 (≈ 185 µM) | 215 (≈ 442 µM) | 1540 (≈ 3160 µM) | 918 (≈ 1890 µM) | < 2 | solubility at 18 h [2, 18]: 83 µg/mL (≈ 171 µM); solubility at 18 h [2, 19]: 1640 µg/mL (≈ 3380 µM); solubility at 18 h [2, 20]: 234 µg/mL (≈ 481 µM); solubility at 18 h [2, 21]: 3 µg/mL (≈ 6.17 µM); solubility at 18 h [2, 22]: 268 µg/mL (≈ 551 µM); solubility at 18 h [2, 23]: < 2 µg/mL; solubility at 18 h [2, 24]: < 2 µg/mL |
